According to patent US20160223562A1, “Method for Determining the Concentration of a Peptide” (JPT Peptide Technologies GmbH, priority 2010, published 2016):
Square brackets hold non-standard residues; d marks the D form. Peptide text beside a SMILES is read from it. Tyr(3-NO2) = N[C@@H](Cc1ccc(O)c([N+](=O)[O-])c1)C(=O)O

Molecular target: T1, Trypsin (Sus scrofa, UniProt P00761)
T1 construct: purchased Promega Corporation V511
Test: Trypsin cleavage of N-terminal quantification tag Ac-nitroTyr-SGK- from peptides, LC-MS with UV detection at 350 nm
Type: biochemical
Conditions: trypsin protocol of example 9, 24 h, RT
Protocol: Trypsin Activation: Trypsin (20 μg, sequencing grade modified trypsin, Promega Corporation, Madison, Wis., USA, catalogue no. V511, specific activity 16.965 u/mg) was dissolved in Trypsin resuspension buffer (200 μL, Promega, catalogue no. V542A, ingredient 50 mM acetic acid) and incubated for 15 min at 37° C.
Reduction and alkylation: The peptide (approx. 0.05 mg) was dissolved in 1 M urea and 100 mM fresh ammonium hydrogen carbonate (300 μL). TCEP (Tris(2-carboxyethyl) phosphine hydrochloride, 0.2 M, 7.5 μL, final concentration 5 mM) was added and the solution incubated at 37° C. for 1 h. After addition of iodoacetamide (0.5 M, 6.0 μL, final concentration 10 mM) the solution was incubated at RT in the dark for another 30 min. Digestion: The sample was digested with activated Trypsin solution (10 μL per well, 1.0 μg, resulting enzyme/substrate ratio 1:50) over night at RT. To stop the digestion, HCl (2 M, 8 μL final concentration 50 mM) and TFA (3.2 μL, final concentration 1%, pH<2) were added. Finally, the sample was analyzed by LC-MS at 350 nm.
38 peptides carrying the N-terminal quantification-tag Ac-nitroTyr-SGK-(SEQ ID NO:32) were synthesized by SPOT synthesis (Table 3). The peptide sequences are based on two different amino acid sequences, which in each case contain 19 different amino acids N-terminally attached to lysine (the 20 naturally occurring amino acids except cysteine).
All peptides were subjected to the same trypsin cleavage protocol as described in example 9. It is apparent that the quantification tag is efficiently cleaved (>99%) in nearly all cases.

T1 sequence (P00761 9-231): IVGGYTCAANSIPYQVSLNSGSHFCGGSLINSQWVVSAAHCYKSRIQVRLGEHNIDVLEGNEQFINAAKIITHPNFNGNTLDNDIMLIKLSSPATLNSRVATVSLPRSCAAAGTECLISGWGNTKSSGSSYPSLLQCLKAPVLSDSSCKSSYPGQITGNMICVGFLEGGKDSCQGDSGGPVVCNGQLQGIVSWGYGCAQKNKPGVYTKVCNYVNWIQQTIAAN

Compound	Kusebauch 24 h, RT: Percent Cleavage of Tag [by UV350 - Peptide-Tag vs. Tag]
CC(=O)N[C@@H](Cc1ccc(O)c([N+](=O)[O-])c1)C(=O)N[C@@H](CO)C(=O)NCC(=O)N[C@@H](CCCCN)C(=O)N[C@@H](CCC(=O)O)C(=O)N[C@H](C(=O)N[C@@H](C)C(=O)N[C@@H](CC(C)C)C(=O)N[C@@H](CO)C(=O)N[C@@H](CC(C)C)C(=O)N[C@@H](CC(=O)O)C(=O)N[C@@H](CC(=O)O)C(=O)N[C@H](C(=O)N[C@@H](CCCCN)C(=O)O)C(C)C)C(C)C [Peptide 24, Ac-nitroTyr-SGKEVALSLDDV-K-OH] (Ac-[Tyr(3-NO2)]SGKEVALSLDDVK-OH)	100.0%
CC(=O)N[C@@H](Cc1ccc(O)c([N+](=O)[O-])c1)C(=O)N[C@@H](CO)C(=O)NCC(=O)N[C@@H](CCCCN)C(=O)N[C@@H](Cc1ccccc1)C(=O)N[C@H](C(=O)N[C@@H](C)C(=O)N[C@@H](CC(C)C)C(=O)N[C@@H](CO)C(=O)N[C@@H](CC(C)C)C(=O)N[C@@H](CC(=O)O)C(=O)N[C@@H](CC(=O)O)C(=O)N[C@H](C(=O)N[C@@H](CCCCN)C(=O)O)C(C)C)C(C)C [Peptide 25, Ac-nitroTyr-SGKFVALSLDDV-K-OH] (Ac-[Tyr(3-NO2)]SGKFVALSLDDVK-OH)	100.0%
CC(=O)N[C@@H](Cc1ccc(O)c([N+](=O)[O-])c1)C(=O)N[C@@H](CO)C(=O)NCC(=O)N[C@@H](CCCCN)C(=O)NCC(=O)N[C@H](C(=O)N[C@@H](C)C(=O)N[C@@H](CC(C)C)C(=O)N[C@@H](CO)C(=O)N[C@@H](CC(C)C)C(=O)N[C@@H](CC(=O)O)C(=O)N[C@@H](CC(=O)O)C(=O)N[C@H](C(=O)N[C@@H](CCCCN)C(=O)O)C(C)C)C(C)C [Peptide 26, Ac-nitroTyr-SGKGVALSLDDV-K-OH] (Ac-[Tyr(3-NO2)]SGKGVALSLDDVK-OH)	99.3%
CC(=O)N[C@@H](Cc1ccc(O)c([N+](=O)[O-])c1)C(=O)N[C@@H](CO)C(=O)NCC(=O)N[C@@H](CCCCN)C(=O)N[C@@H](Cc1c[nH]cn1)C(=O)N[C@H](C(=O)N[C@@H](C)C(=O)N[C@@H](CC(C)C)C(=O)N[C@@H](CO)C(=O)N[C@@H](CC(C)C)C(=O)N[C@@H](CC(=O)O)C(=O)N[C@@H](CC(=O)O)C(=O)N[C@H](C(=O)N[C@@H](CCCCN)C(=O)O)C(C)C)C(C)C [Peptide 27, Ac-nitroTyr-SGKHVALSLDDV-K-OH] (Ac-[Tyr(3-NO2)]SGKHVALSLDDVK-OH)	100.0%
CC[C@H](C)[C@H](NC(=O)[C@H](CCCCN)NC(=O)CNC(=O)[C@H](CO)NC(=O)[C@H](Cc1ccc(O)c([N+](=O)[O-])c1)NC(C)=O)C(=O)N[C@H](C(=O)N[C@@H](C)C(=O)N[C@@H](CC(C)C)C(=O)N[C@@H](CO)C(=O)N[C@@H](CC(C)C)C(=O)N[C@@H](CC(=O)O)C(=O)N[C@@H](CC(=O)O)C(=O)N[C@H](C(=O)N[C@@H](CCCCN)C(=O)O)C(C)C)C(C)C [Peptide 28, Ac-nitroTyr-SGKIVALSLDDV-K-OH] (Ac-[Tyr(3-NO2)]SGKIVALSLDDVK-OH)	100.0%
CC(=O)N[C@@H](Cc1ccc(O)c([N+](=O)[O-])c1)C(=O)N[C@@H](CO)C(=O)NCC(=O)N[C@@H](CCCCN)C(=O)N[C@@H](CCCCN)C(=O)N[C@H](C(=O)N[C@@H](C)C(=O)N[C@@H](CC(C)C)C(=O)N[C@@H](CO)C(=O)N[C@@H](CC(C)C)C(=O)N[C@@H](CC(=O)O)C(=O)N[C@@H](CC(=O)O)C(=O)N[C@H](C(=O)N[C@@H](CCCCN)C(=O)O)C(C)C)C(C)C [Peptide 29, Ac-nitroTyr-SGKKVALSLDDV-K-OH] (Ac-[Tyr(3-NO2)]SGKKVALSLDDVK-OH)	100.0%
CC(=O)N[C@@H](Cc1ccc(O)c([N+](=O)[O-])c1)C(=O)N[C@@H](CO)C(=O)NCC(=O)N[C@@H](CCCCN)C(=O)N[C@@H](CC(C)C)C(=O)N[C@H](C(=O)N[C@@H](C)C(=O)N[C@@H](CC(C)C)C(=O)N[C@@H](CO)C(=O)N[C@@H](CC(C)C)C(=O)N[C@@H](CC(=O)O)C(=O)N[C@@H](CC(=O)O)C(=O)N[C@H](C(=O)N[C@@H](CCCCN)C(=O)O)C(C)C)C(C)C [Peptide 30, Ac-nitroTyr-SGKLVALSLDDV-K-OH] (Ac-[Tyr(3-NO2)]SGKLVALSLDDVK-OH)	100.0%
CSCC[C@H](NC(=O)[C@H](CCCCN)NC(=O)CNC(=O)[C@H](CO)NC(=O)[C@H](Cc1ccc(O)c([N+](=O)[O-])c1)NC(C)=O)C(=O)N[C@H](C(=O)N[C@@H](C)C(=O)N[C@@H](CC(C)C)C(=O)N[C@@H](CO)C(=O)N[C@@H](CC(C)C)C(=O)N[C@@H](CC(=O)O)C(=O)N[C@@H](CC(=O)O)C(=O)N[C@H](C(=O)N[C@@H](CCCCN)C(=O)O)C(C)C)C(C)C [Peptide 31, Ac-nitroTyr-SGKMVALSLDDV-K-OH] (Ac-[Tyr(3-NO2)]SGKMVALSLDDVK-OH)	100.0%
CC(=O)N[C@@H](Cc1ccc(O)c([N+](=O)[O-])c1)C(=O)N[C@@H](CO)C(=O)NCC(=O)N[C@@H](CCCCN)C(=O)N[C@@H](CC(N)=O)C(=O)N[C@H](C(=O)N[C@@H](C)C(=O)N[C@@H](CC(C)C)C(=O)N[C@@H](CO)C(=O)N[C@@H](CC(C)C)C(=O)N[C@@H](CC(=O)O)C(=O)N[C@@H](CC(=O)O)C(=O)N[C@H](C(=O)N[C@@H](CCCCN)C(=O)O)C(C)C)C(C)C [Peptide 32, Ac-nitroTyr-SGKNVALSLDDV-K-OH] (Ac-[Tyr(3-NO2)]SGKNVALSLDDVK-OH)	100.0%
CC(=O)N[C@@H](Cc1ccc(O)c([N+](=O)[O-])c1)C(=O)N[C@@H](CO)C(=O)NCC(=O)N[C@@H](CCCCN)C(=O)N1CCC[C@H]1C(=O)N[C@H](C(=O)N[C@@H](C)C(=O)N[C@@H](CC(C)C)C(=O)N[C@@H](CO)C(=O)N[C@@H](CC(C)C)C(=O)N[C@@H](CC(=O)O)C(=O)N[C@@H](CC(=O)O)C(=O)N[C@H](C(=O)N[C@@H](CCCCN)C(=O)O)C(C)C)C(C)C [Peptide 33, Ac-nitroTyr-SGKPVALSLDDV-K-OH] (Ac-[Tyr(3-NO2)]SGKPVALSLDDVK-OH)	5.4%
CC(=O)N[C@@H](Cc1ccc(O)c([N+](=O)[O-])c1)C(=O)N[C@@H](CO)C(=O)NCC(=O)N[C@@H](CCCCN)C(=O)N[C@@H](CCC(N)=O)C(=O)N[C@H](C(=O)N[C@@H](C)C(=O)N[C@@H](CC(C)C)C(=O)N[C@@H](CO)C(=O)N[C@@H](CC(C)C)C(=O)N[C@@H](CC(=O)O)C(=O)N[C@@H](CC(=O)O)C(=O)N[C@H](C(=O)N[C@@H](CCCCN)C(=O)O)C(C)C)C(C)C [Peptide 34, Ac-nitroTyr-SGKQVALSLDDV-K-OH] (Ac-[Tyr(3-NO2)]SGKQVALSLDDVK-OH)	100.0%
CC(=O)N[C@@H](Cc1ccc(O)c([N+](=O)[O-])c1)C(=O)N[C@@H](CO)C(=O)NCC(=O)N[C@@H](CCCCN)C(=O)N[C@@H](CCCNC(=N)N)C(=O)N[C@H](C(=O)N[C@@H](C)C(=O)N[C@@H](CC(C)C)C(=O)N[C@@H](CO)C(=O)N[C@@H](CC(C)C)C(=O)N[C@@H](CC(=O)O)C(=O)N[C@@H](CC(=O)O)C(=O)N[C@H](C(=O)N[C@@H](CCCCN)C(=O)O)C(C)C)C(C)C [Peptide 35, Ac-nitroTyr-SGKRVALSLDDV-K-OH] (Ac-[Tyr(3-NO2)]SGKRVALSLDDVK-OH)	100.0%
CC(=O)N[C@@H](Cc1ccc(O)c([N+](=O)[O-])c1)C(=O)N[C@@H](CO)C(=O)NCC(=O)N[C@@H](CCCCN)C(=O)N[C@@H](CO)C(=O)N[C@H](C(=O)N[C@@H](C)C(=O)N[C@@H](CC(C)C)C(=O)N[C@@H](CO)C(=O)N[C@@H](CC(C)C)C(=O)N[C@@H](CC(=O)O)C(=O)N[C@@H](CC(=O)O)C(=O)N[C@H](C(=O)N[C@@H](CCCCN)C(=O)O)C(C)C)C(C)C [Peptide 36, Ac-nitroTyr-SGKSVALSLDDV-K-OH] (Ac-[Tyr(3-NO2)]SGKSVALSLDDVK-OH)	100.0%
CC(=O)N[C@@H](Cc1ccc(O)c([N+](=O)[O-])c1)C(=O)N[C@@H](CO)C(=O)NCC(=O)N[C@@H](CCCCN)C(=O)N[C@H](C(=O)N[C@H](C(=O)N[C@@H](C)C(=O)N[C@@H](CC(C)C)C(=O)N[C@@H](CO)C(=O)N[C@@H](CC(C)C)C(=O)N[C@@H](CC(=O)O)C(=O)N[C@@H](CC(=O)O)C(=O)N[C@H](C(=O)N[C@@H](CCCCN)C(=O)O)C(C)C)C(C)C)[C@@H](C)O [Peptide 37, Ac-nitroTyr-SGKTVALSLDDV-K-OH] (Ac-[Tyr(3-NO2)]SGKTVALSLDDVK-OH)	100.0%
CC(=O)N[C@@H](Cc1ccc(O)c([N+](=O)[O-])c1)C(=O)N[C@@H](CO)C(=O)NCC(=O)N[C@@H](CCCCN)C(=O)N[C@H](C(=O)N[C@H](C(=O)N[C@@H](C)C(=O)N[C@@H](CC(C)C)C(=O)N[C@@H](CO)C(=O)N[C@@H](CC(C)C)C(=O)N[C@@H](CC(=O)O)C(=O)N[C@@H](CC(=O)O)C(=O)N[C@H](C(=O)N[C@@H](CCCCN)C(=O)O)C(C)C)C(C)C)C(C)C [Peptide 38, Ac-nitroTyr-SGKVVALSLDDV-K-OH] (Ac-[Tyr(3-NO2)]SGKVVALSLDDVK-OH)	100.0%
